Values of other authors in patent publication US5840324A, “Antiparasitic compositions” (Commonwealth Scientific and Industrial Organisation, priority 1993, dated 1998).

Columns and labels:
[1] = for time of maximum concentration in the bloodstream: after oral administration; for absorption: conventional dosing; for activity of metabolic products: degradation products of absorbed compound

Row | Compound | time of maximum concentration in the bloodstream [1] | absorption [1] | activity of metabolic products [1] | excretion of absorbed drug ([1]; in vivo) | metabolism ([1]; in vivo) | association with plasma albumin (plasma albumin) | retention in the bloodstream at efficacious levels ([1]; against blood-consuming parasites) | dose lost in faeces ([1]; in vivo) | absorption of ABZ in the abomasum
1 | Cc1ccsc1/C=C/C1=NCCCN1C [morantel, (E)-1,4,5,6-tetrahydro-1-methyl-2-[2-(3-methyl-2-thienyl)vinyl]-pyrimidine] | 2 to 4 h | rapidly absorbed from the rumen | completely inactive | rapidly excreted, predominantly in urine | degraded at a rate consistent with first-pass metabolism | – | – | – | –
2 | CN1CCCN=C1/C=C/c1cccs1 [pyrantel, 1,4,5,6-tetrahydro-1-methyl-2-[(E)-2-(2-thienyl)-vinyl]-pyrimidine-4,4'-methylenebis-(3-hydroxy-2-naphthoate)] | 2 to 4 h | rapidly absorbed from the rumen | completely inactive | rapidly excreted, predominantly in urine | degraded at a rate consistent with first-pass metabolism | – | – | – | –
3 | Cc1cc(C(C#N)c2ccc(Cl)cc2)c(Cl)cc1NC(=O)c1cc(I)cc(I)c1O (stereo not drawn) [closantel, 5'-chloro-4'-(4-chloro-α-cyanobenzyl)-3,5-diiodosalicyl-o-toluidide] | – | slowly absorbed | – | – | – | very strongly associate with plasma albumin | 3-4 weeks | about 50% | –
4 | Cl.c1ccc([C@H]2CN3CCSC3=N2)cc1 [Levamisole, (-)-(S)-2,3,5,6-tetrahydro-6-phenylimidazo[2,1-b]thiazole hydrochloride] | 2 to 4 h | rapidly absorbed from the rumen | – | rapidly excreted, predominantly in urine | rapidly metabolised | – | – | – | –
5 | CCCSc1ccc2nc(NC(=O)OC)[nH]c2c1 [ABZ, [5-(propylthio)-1H-benzimidazol-2-yl]carbamic acid methyl ester] | – | – | – | – | – | – | – | – | virtually no absorption
